Here are results for three compounds from patent US20240246942A1, “KINASE INHIBITORS FOR THE TREATMENT OF NEURODEGENERATIVE DISEASES” (priority 2020, published 2024).

What all share (experiment): biochemical
The target of assay [1] is T1, panel of 374 wild-type kinases (Homo sapiens, UniProt O00141).
T1 construct: purchased Reaction Biology Corporation
T1 sequence (O00141 1-431): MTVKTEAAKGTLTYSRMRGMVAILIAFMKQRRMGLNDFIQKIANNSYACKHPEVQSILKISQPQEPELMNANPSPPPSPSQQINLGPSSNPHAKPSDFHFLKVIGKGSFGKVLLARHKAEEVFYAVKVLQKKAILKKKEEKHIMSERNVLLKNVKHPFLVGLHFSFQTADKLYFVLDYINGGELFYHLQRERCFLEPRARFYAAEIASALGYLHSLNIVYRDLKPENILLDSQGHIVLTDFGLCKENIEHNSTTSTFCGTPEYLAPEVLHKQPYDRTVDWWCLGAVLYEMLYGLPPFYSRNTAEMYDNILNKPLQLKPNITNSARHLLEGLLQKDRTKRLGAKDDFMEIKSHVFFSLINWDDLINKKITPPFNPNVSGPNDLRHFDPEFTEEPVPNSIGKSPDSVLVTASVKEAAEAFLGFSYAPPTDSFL
To be noted: read-out: % Enzyme Activity (relative to DMSO controls), kinase SGK1.

Assay [2] concerns the target T2, panel of 374 wild-type kinases (Homo sapiens, UniProt P41279).
T2 construct: purchased Reaction Biology Corporation
Conditions: read-out: % Enzyme Activity (relative to DMSO controls), COT1/MAP3K8.

Assay [3] deals with T3, panel of 374 wild-type kinases (Homo sapiens, UniProt P53355).
T3 construct: purchased Reaction Biology Corporation
T3 sequence (P53355 whole entry): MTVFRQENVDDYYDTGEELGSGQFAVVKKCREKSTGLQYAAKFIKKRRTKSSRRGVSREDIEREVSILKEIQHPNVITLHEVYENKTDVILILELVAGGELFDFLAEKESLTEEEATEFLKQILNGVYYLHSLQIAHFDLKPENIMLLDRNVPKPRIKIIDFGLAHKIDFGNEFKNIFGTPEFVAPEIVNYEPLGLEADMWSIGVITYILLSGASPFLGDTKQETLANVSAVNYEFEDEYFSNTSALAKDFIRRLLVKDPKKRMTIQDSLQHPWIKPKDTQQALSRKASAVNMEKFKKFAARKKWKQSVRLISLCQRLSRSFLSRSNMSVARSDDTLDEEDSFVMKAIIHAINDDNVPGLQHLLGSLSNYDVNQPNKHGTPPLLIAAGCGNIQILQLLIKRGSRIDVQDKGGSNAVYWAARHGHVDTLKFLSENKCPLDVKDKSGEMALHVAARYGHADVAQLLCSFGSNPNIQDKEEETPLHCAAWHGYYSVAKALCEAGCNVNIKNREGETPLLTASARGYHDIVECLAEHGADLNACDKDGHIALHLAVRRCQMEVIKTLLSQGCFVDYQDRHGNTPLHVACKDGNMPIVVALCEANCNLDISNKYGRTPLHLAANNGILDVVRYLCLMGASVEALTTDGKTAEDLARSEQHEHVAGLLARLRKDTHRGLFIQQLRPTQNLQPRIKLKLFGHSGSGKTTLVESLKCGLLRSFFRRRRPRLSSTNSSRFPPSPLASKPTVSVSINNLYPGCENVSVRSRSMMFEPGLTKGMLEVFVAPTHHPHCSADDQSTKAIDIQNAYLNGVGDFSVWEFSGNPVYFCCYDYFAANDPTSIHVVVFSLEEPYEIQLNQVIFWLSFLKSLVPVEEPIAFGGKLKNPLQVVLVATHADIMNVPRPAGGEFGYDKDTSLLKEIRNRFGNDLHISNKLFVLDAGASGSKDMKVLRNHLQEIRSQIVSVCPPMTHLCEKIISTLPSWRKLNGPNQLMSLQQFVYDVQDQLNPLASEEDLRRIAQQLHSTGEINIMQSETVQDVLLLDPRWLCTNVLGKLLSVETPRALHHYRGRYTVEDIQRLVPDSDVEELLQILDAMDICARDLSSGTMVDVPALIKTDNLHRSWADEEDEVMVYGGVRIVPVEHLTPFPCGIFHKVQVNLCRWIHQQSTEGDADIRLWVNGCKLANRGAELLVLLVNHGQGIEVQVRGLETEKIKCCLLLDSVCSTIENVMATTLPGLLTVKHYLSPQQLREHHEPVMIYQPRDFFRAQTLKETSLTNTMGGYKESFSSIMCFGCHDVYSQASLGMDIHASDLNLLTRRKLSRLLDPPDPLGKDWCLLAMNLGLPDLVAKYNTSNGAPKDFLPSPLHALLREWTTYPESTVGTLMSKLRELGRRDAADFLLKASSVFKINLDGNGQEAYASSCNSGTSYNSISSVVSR
Conditions: read-out: % Enzyme Activity (relative to DMSO controls), DAPK1.

Assay [4] concerns the target T4, panel of 374 wild-type kinases (Homo sapiens, UniProt P54764).
T4 construct: purchased Reaction Biology Corporation
To be noted: read-out: % Enzyme Activity (relative to DMSO controls), EPHA4.

Assay [5] addresses T5, panel of 374 wild-type kinases (Homo sapiens, UniProt Q13882).
T5 construct: purchased Reaction Biology Corporation
To be noted: read-out: % Enzyme Activity (relative to DMSO controls), BRK.

For assay [6], the target named is T6, panel of 374 wild-type kinases (Homo sapiens, UniProt Q8N4C8).
T6 construct: purchased Reaction Biology Corporation
Conditions: read-out: % Enzyme Activity (relative to DMSO controls), MINK/MINK1.

Assay [7] concerns the target T7, panel of 374 wild-type kinases (Homo sapiens, UniProt Q99683).
T7 construct: purchased Reaction Biology Corporation
T7 sequence (Q99683 1-1374): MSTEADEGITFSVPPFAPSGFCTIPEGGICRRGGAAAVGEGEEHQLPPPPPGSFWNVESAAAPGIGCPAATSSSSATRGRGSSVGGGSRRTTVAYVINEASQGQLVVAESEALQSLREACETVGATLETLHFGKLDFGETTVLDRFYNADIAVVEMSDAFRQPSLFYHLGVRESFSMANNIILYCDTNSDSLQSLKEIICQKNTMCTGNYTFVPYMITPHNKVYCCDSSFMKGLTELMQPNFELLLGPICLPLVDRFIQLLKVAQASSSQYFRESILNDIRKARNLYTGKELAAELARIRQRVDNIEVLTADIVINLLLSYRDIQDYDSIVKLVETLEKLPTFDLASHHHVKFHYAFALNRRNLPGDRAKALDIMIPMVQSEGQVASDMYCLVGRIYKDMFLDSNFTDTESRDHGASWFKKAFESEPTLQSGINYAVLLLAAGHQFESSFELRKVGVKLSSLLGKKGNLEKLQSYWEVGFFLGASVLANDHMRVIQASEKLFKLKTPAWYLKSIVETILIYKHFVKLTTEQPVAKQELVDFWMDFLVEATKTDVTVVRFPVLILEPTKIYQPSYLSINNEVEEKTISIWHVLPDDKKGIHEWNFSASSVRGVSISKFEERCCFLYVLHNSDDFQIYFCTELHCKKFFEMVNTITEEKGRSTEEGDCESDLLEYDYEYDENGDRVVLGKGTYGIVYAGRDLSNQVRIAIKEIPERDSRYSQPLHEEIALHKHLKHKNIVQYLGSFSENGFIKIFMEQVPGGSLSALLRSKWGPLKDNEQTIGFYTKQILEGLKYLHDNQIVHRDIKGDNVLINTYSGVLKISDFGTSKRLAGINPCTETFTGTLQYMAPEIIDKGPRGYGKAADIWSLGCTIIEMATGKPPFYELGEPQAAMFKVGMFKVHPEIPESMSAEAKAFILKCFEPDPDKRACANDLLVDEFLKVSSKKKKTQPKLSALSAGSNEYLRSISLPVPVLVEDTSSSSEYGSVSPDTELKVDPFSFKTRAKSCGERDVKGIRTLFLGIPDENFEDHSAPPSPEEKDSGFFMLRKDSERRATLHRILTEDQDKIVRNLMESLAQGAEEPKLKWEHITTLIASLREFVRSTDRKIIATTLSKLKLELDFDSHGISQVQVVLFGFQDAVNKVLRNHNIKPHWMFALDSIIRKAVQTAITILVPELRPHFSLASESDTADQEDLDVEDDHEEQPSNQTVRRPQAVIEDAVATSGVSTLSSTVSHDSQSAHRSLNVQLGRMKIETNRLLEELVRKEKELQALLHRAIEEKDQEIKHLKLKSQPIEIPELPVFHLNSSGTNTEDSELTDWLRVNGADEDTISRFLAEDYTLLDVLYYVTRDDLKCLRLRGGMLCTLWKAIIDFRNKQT
To be noted: read-out: % Enzyme Activity (relative to DMSO controls), ASK1/MAP3K5.

Assay [8] has as its target T8, panel of 374 wild-type kinases (Homo sapiens, UniProt Q9BXA7).
T8 construct: purchased Reaction Biology Corporation
T8 sequence (Q9BXA7 1-367): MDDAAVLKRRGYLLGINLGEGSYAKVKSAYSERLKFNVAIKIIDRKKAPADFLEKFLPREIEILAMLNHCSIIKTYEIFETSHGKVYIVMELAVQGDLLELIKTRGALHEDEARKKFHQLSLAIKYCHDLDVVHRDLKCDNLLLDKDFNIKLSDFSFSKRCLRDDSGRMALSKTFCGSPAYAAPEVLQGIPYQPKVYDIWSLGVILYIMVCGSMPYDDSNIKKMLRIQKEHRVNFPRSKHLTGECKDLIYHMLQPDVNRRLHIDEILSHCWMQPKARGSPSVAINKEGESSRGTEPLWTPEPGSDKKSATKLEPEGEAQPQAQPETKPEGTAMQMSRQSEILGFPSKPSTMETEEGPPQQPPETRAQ
To be noted: read-out: % Enzyme Activity (relative to DMSO controls), kinase STK22D/TSSK1.

In assay [9] the target is T9, panel of 374 wild-type kinases (Homo sapiens, UniProt Q9NYY3).
T9 construct: purchased Reaction Biology Corporation
T9 sequence (Q9NYY3 whole entry): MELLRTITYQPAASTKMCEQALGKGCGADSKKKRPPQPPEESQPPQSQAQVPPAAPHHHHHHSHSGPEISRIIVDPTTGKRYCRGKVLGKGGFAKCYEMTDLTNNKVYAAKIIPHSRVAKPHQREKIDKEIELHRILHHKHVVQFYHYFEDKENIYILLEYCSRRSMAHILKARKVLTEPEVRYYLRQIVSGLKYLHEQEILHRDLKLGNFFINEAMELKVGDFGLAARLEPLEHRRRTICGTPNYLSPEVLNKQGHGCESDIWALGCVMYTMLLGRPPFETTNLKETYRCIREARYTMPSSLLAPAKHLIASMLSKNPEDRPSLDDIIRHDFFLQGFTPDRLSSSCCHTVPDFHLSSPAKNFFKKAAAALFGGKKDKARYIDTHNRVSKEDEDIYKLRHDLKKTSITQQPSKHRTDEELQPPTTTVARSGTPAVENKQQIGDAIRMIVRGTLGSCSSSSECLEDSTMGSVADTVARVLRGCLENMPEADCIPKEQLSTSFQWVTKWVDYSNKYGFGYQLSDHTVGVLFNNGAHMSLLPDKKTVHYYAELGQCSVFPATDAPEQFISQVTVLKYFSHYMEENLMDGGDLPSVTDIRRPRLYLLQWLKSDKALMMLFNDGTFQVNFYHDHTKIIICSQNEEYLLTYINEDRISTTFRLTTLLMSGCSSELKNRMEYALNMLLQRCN
Conditions: read-out: % Enzyme Activity (relative to DMSO controls), kinase PLK2.

The structures appear in SMILES notation.

T2 sequence (P41279 whole entry): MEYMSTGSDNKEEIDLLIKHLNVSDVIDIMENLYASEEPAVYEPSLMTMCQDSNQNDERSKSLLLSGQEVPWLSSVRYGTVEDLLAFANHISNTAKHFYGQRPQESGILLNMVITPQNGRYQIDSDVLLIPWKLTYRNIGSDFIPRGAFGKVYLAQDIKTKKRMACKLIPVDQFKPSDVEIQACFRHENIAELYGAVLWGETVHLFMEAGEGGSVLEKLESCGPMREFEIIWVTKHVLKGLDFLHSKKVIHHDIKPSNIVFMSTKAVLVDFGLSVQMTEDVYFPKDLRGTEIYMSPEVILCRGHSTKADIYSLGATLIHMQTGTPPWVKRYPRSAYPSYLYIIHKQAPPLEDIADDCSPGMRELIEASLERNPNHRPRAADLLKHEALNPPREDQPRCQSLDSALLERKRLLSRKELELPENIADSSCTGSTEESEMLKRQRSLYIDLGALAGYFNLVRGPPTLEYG
T5 sequence (Q13882 whole entry): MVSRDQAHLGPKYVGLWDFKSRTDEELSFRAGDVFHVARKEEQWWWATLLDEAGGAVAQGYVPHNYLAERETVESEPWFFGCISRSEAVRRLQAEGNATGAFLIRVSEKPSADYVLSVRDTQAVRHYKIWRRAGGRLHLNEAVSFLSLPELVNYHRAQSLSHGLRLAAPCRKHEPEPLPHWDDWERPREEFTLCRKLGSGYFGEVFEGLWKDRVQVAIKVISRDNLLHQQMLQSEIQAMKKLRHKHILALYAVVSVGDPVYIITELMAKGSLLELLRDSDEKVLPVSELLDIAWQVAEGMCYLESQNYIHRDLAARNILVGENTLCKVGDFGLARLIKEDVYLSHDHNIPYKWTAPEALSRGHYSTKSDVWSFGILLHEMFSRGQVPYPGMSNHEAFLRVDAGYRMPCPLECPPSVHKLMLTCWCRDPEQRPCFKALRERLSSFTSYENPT
T4 sequence (P54764 20-986): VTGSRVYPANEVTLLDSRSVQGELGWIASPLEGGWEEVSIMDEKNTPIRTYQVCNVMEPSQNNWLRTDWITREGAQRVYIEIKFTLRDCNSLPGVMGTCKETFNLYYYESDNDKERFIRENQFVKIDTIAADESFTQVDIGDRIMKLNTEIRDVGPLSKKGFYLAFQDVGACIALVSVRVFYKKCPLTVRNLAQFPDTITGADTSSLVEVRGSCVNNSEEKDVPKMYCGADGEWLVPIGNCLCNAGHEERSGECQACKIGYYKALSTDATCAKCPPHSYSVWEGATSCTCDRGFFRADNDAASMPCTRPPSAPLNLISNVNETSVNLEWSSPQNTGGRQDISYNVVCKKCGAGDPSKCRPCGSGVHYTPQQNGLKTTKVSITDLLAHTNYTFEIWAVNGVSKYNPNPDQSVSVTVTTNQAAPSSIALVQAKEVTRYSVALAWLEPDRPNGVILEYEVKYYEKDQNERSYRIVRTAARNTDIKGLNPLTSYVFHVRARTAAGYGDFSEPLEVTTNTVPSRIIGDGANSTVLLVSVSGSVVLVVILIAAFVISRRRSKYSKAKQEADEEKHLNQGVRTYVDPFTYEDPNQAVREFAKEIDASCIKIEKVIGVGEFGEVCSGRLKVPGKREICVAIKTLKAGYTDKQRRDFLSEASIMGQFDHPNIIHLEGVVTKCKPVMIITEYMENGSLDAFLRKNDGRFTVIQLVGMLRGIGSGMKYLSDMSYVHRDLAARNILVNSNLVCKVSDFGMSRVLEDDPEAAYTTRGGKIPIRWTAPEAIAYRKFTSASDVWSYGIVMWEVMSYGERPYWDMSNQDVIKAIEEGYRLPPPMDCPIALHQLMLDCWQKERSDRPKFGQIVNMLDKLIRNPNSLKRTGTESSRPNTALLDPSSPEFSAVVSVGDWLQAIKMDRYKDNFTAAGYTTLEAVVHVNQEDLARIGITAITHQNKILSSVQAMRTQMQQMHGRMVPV

As to `O=C(Nc1cnn(-c2csc(C(=O)NC3COC3)c2)c1)Nc1ccccc1Cl` [Compound 17, 4-(4-(3-(2-chlorophenyl)ureido)-1H-pyrazol-1-yl)-N-(oxetan-3-yl)thiophene-2-carboxamide], the remaining activity at 5 µM in [1] was found to be 93.7%; in assay [2] it was 92.7%; in assay [3], 104%; in assay [4], 100%; in [5], 118%; in assay [6], 79.4%. For the same compound, the remaining activity at 5 µM was 91.2% in assay [7], 102% in [8] and 86% in assay [9].
For `O=C(Nc1cnn(-c2csc(C(=O)NC3COC3)c2)c1)Nc1c(F)cccc1Cl` [Compound 25, 4-(4-(3-(2-chloro-6-fluorophenyl)ureido)-1H-pyrazol-1-yl)-N-(oxetan-3-yl)thiophene-2-carboxamide], the remaining activity at 5 µM in [1] was found to be 95.4%; in assay [2] it was 93.6%; in [3], 98.9%; in assay [4], 89.1%; in assay [5], 85.7%; in assay [6], 62.2%. In addition, the remaining activity at 5 µM in [7] is 91.1%; in assay [8], 107%; in assay [9], 100%.
As to `Cc1sc(C(=O)NC2COC2)cc1-n1cc(NC(=O)Nc2c(F)cccc2Cl)cn1` [Compound 27, 4-(4-(3-(2-chloro-6-fluorophenyl)ureido)-1H-pyrazol-1-yl)-5-methyl-N-(oxetan-3-yl)thiophene-2-carboxamide], the remaining activity at 10 µM in [1] (10 uM) amounted to 115%; in assay [2] (10 uM) it was 105%; in [3] (10 uM), 104%; in assay [4] (10 uM), 116%; in assay [5] (10 uM) it was 78.9%; in assay [6] (10 uM), 102%. Also, the remaining activity at 10 µM in assay [7] (10 uM) was 94%; in assay [8] (10 uM), 103%; in assay [9] (10 uM) it was 95.2%.
